These results are taken from publication PMC4467147, “Identification of epipolythiodioxopiperazines HDN-1 and chaetocin as novel inhibitor of heat shock protein 90” (Oncotarget, 2015).

Usually inhibition stands for the share of the control response that was lost under treatment.

Where two headings read alike, the source gives them in different places.

In test [1] the test system is H1975 cells. Nature of the test: Drug combination study HDN-1 and 17-AAG, MTT assay, H1975. It is filed as cell-based, human. The conditions noted are these: H1975, 72 h. How it is done:
(§1) A modified tetrazolium salt assay was used to measure the inhibition of cancer cell growth. Cancer cells were plated into a 96-well microtiter plate containing 0.1 ml of growth media/well for 24 h, then were incubated with HDN-1 at indicated concentrations dissolved in DMSO for 72 h. 3-(4,5-Dimethylthiazol-2-yl)-2,5- diphenyltetrazoliumbromide (MTT) was added to each well of a 96-well plate. After 4 h incubation, the formazan product was dissolved and quantitated spectrophotometrically at a wavelength of 560 nm. Percent viability of each sample was calculated from the A560 values as follows: % viability = (A560 nm sample / A560 nm DMSO-treated cells × 100). The IC50 was defined as the concentration that gave rise to 50% inhibition of cell viability.
H1975 cell were seeded in triplicate in 96-well plates and treated with HDN-1 or 17-AAG alone or with the combination of HDN-1 and 17-AAG at the indicated doses. MTT assays were performed after 72 h of treatment. The Q (value) was calculated according to Jin's formula: Q = Ea+b/(Ea+Eb−Ea × Eb). Ea+b represented the inhibition rate of drug combination, Ea and Eb represented the inhibition rate of drug A and B alone, respectively. Q (value) = 0.85–1.15 stands for additivity, Q (value) > 1.15–2.0 stands for synergism, and Q (value) < 0.85–0.55 stands for antagonism.

Another test has as its target Hsp90α ATPase (Homo sapiens, UniProt P07900). Nature of the test: Hsp90α ATPase activity. The conditions noted are these: data not shown. It is filed as biochemical.
The subject of the next test is A549 cells. Nature of the test: MTT cell viability assay, A549. The conditions noted are these: A549, 72 h, read-out: IC50 cell proliferation. Format: cell-based, human. The protocol: as §1
The target of test [2] is T1, C-terminal Hsp90 fragment (535–732aa) of human Hsp90α (Homo sapiens, UniProt P07900).
T1 construct: recombinant C-terminal Hsp90 fragment (535–732aa) of human Hsp90α
Briefly: ForteBio Octet binding to biotinylated C-terminal Hsp90α. The conditions noted are these: Octet RED96, read-out: Kd for C-terminus of Hsp90α. The protocol:
(§2) SPR analysis was carried out with a ProteOn XPR36 instrument (Bio-Rad) or ForteBio's Octet RED96 to determine binding of various molecules to full length Hsp90α or C-terminal Hsp90α. For full length Hsp90α, Hsp90α was coupled to the surface of a GLH sensor chip using amine coupling. The coupling has been performed according to the manufacturer's instructions. Binding experiments were performed with multiple concentrations of HDN-1 and chaetocin running over the surface of the chip at 25°C, at a constant flow rate of 30 μl/min in PBS-T (10 mM Phosphate, 150 mM NaCl, pH 7.4 and 0.005% Tween20 [v/v]). The sensor chip surface was regenerated using 0.85% H3PO4. Changes in mass due to the binding response were recorded as resonance units (RU). To obtain the dissociation constant (Kd), these responses were fit to a 1:1 Langmuir binding model by nonlinear regression using the BiaEvaluation 4.1 software program. For interplay of HDN-1 with other molecules, 50 μM 17-AAG, 50 μM novobiocin, or 100 μM ATP was injected into Hsp90α-immobilized chip and the RU values were recorded in succession for indicated time, then these compounds were replaced by 50 μM HDN-1, and RU values were recorded unceasingly. Similar experiments were conversely performed and RU values were recorded. […] Binding of samples (31.25–500 μM) to coated and uncoated reference sensors was measured over 60 s. […]

The next test deals with T2, full length Hsp90α (Homo sapiens, UniProt P07900).
T2 construct: For full length Hsp90α, Hsp90α was coupled to the surface of a GLH sensor chip using amine coupling
Nature of the test: SPR binding to full-length Hsp90α immobilized on sensor chip. The conditions noted are these: 25°C, 1:1 Langmuir model, read-out: dissociation constant (Kd) for full-length Hsp90α. How it is done: as §2
In general terms: In SPR one partner is held on a chip, and binding of the other changes the refractive index at the surface.

The test system of test [3] is H1975 cells. Briefly: MTT cell viability assay, H1975. The conditions noted are these: Homo sapiens, NCI-H1975, H1975, 72 h, read-out: IC50 cell proliferation. Format: cell-based. How it is done: as §1
In a further test the target is T3, Hsp90α (Homo sapiens, UniProt P07900).
T3 construct: For full length Hsp90α, Hsp90α was coupled to the surface of a GLH sensor chip using amine coupling
Nature of the test: Fluorescence polarization competitive assay, displacement of FITC-GA from Hsp90α. The conditions noted are these: 200 nM FITC-GA, 30 nM Hsp90α; read-out: IC50, effect on the binding of GA to Hsp90. The protocol:
Fluorescence polarization assays were performed under the following conditions: each 96-well plate contained 200 nM FITC-GA, Hsp90α (30 nM), and tested inhibitor (initial stock in DMSO) in a final volume of 100 μl. For each assay, background wells (buffer only), tracer controls (free, FITC-GA only), and bound GA controls (fluorescent GA in the presence of Hsp90) were included on each assay plate. The fraction of tracer bound to Hsp90 was correlated to the mP value and plotted against log10 values of competitor concentrations. The HDN-1 and 17-AAG concentrations at which 50% of bound GA was displaced was obtained by fitting the data. Fluorescence intensity measurements were obtained using a SpectraMax M5 (Molecular Devices, Sunnyvale, CA). The excitation and emission wavelengths were 485 nm and 530 nm, respectively.
A general note: In fluorescence polarisation assays a small probe gives low polarisation when free and higher when bound to something large.

Another test relates to HCC827 cells. Nature of the test: MTT cell viability assay, HCC827. Format: cell-based, human. The conditions noted are these: HCC827, 72 h, read-out: IC50 cell proliferation. The protocol: as §1
For another test, the system named is Hsp90 client proteins. Briefly: Western blotting of Hsp90 client proteins and Hsp70 in NSCLC cells. Format: cell-based, human. The conditions noted are these: for effect on level of SUV39H1: 24 h; for effect on Hsp90 client protein levels (EGFR, Akt, Cyclin D1 etc.): NSCLC cells. The protocol: Cells were incubated with HDN-1 at indicated concentrations and time, then washed with PBS twice, disrupted on ice for 30 min in loading buffer, and boiled for 10 min. Protein concentration was determined with BCA reagent. Equal amounts of protein in cell lysates were separated by SDS-PAGE, transferred to membranes, immunoblotted with indicated primary and secondary antibodies, and detected by chemiluminescence with the enhanced chemiluminescence detection reagents (PIERCE). The antibodies of following proteins were used: EGFR, phosphorylated EGFR (Tyr1068), Akt, phosphorylated Akt (Ser473), MAPK, phosphorylated MAPK (Thr202/Tyr204), ubiquitin, Hsp70, β-Actin; Abl, Stat3, phosphorylated Stat3 (Ser727), Raf-1, cyclin D1. For immunoprecipitation assay, cell lysate protein was incubated overnight at 4°C with the designated antibody and protein G-Sepharose (Amersham Biosciences) was added overnight while rocking. Precipitates were washed three times with lysis buffer and once with PBS, resuspended in 2 × loading buffer, and resolved by SDS-PAGE followed by immunoblot analysis.
For orientation: Immunoblotting shows a protein as a band on a membrane.

Test [4] deals with C-terminus of ATP binding site (660–680 aa) of Hsp90α. On the set-up: method as in PMID 11751878. The conditions noted are these: read-out: binding affinity to C-terminus of ATP binding site of Hsp90α; cited from earlier work.

Consider `C=CCNC1=C2C[C@@H](C)C[C@H](OC)[C@H](O)[C@@H](C)/C=C(\C)[C@H](OC(N)=O)[C@@H](OC)/C=C\C=C(/C)C(=O)NC(=CC1=O)C2=O` [17-AAG], for which the “Inhibition Rate Mean” value with H1975 cells [1] (single agent 100 nM) was found to be 0.070; in the test with H1975 cells [1] (single agent 200 nM) it was 0.267; in the test with H1975 cells [1] (single agent 300 nM) it was 0.393.
As to `CN1C(=O)[C@]23SSS[C@@]1(CO)C(=O)N2[C@H]1Nc2ccccc2C1(C12c4ccccc4N[C@@H]1N1C(=O)[C@]4(CO)SS[C@]1(C(=O)N4C)[C@H]2O)[C@@H]3O` (stereo partly shown) [HDN-1], the “effect on Hsp90α ATPase activity” value at Hsp90α ATPase is on record as “no effect”. In addition, the IC50 was 0.54 µM in the test on A549 cells; 1.06 µM in the test on A549 cells (Homo sapiens); 0.22 µM in the test with H1975 cells [3]; over 10 µM on Hsp90α; 1.06 µM with HCC827 cells; 0.54 µM in the test with HCC827 cells (Homo sapiens). The Kd in [2] came to 201 µM; at full length Hsp90α, 14.6 µM. Besides, the inhibition at 0.1 µM with H1975 cells [1] (Homo sapiens, NCI-H1975, single agent 100 nM, read-out: Inhibition Rate Mean) is 5.1%. The inhibition at 0.2 µM in the test on H1975 cells [1] (Homo sapiens, NCI-H1975, single agent 200 nM, read-out: Inhibition Rate Mean) was found to be 37.1%. The “effect on level of SUV39H1” value in the test on Hsp90 client proteins (Western blotting) is recorded as “decline”. Moreover, the “effect on Hsp70 expression” value in the test on Hsp90 client proteins (H1975, HCC827, A549 cells, Western blotting) was “did not obviously affect”. In the test on Hsp90 client proteins (H1975 and A549 cells, CoCl2-induced hypoxia or 5% CO2 and 2% O2), the “effect on HIF-1α” value is reported as “degraded”. In the test with Hsp90 client proteins (Western blotting), the “effect on Hsp90 client protein levels (EGFR, Akt, Cyclin D1 etc.)” value is “reduced the expression levels”.
With `CO[C@@H]1[C@@H](OC(N)=O)[C@@H](O)[C@H](Oc2ccc3c(O)c(NC(=O)c4ccc(O)c(CC=C(C)C)c4)c(=O)oc3c2C)OC1(C)C` [Novobiocin], in test [4], the Kd was about 3300 µM.
Take `CN1C(=O)[C@@]23C[C@]4([C@]56C[C@@]78SS[C@@](CO)(C(=O)N7[C@H]5Nc5ccccc56)N(C)C8=O)c5ccccc5N[C@@H]4N2C(=O)[C@]1(CO)SS3` [chaetocin]: the Kd on full length Hsp90α worked out at 16.8 µM. Moreover, in the test with Hsp90 client proteins (Western blotting), the “effect on level of SUV39H1” value is “decline” and the “effect on Hsp90 client protein levels (EGFR, Akt, Cyclin D1 etc.)” value is given as “degraded client proteins”.
